{
  "source": "patent US8889143B2",
  "about": "“Ii-key/HER-2/neu hybrid cancer vaccine” (Antigen Express, Inc., priority 2006, dated 2014)",
  "key": {"[1]": {"test_system": "PBMC", "test": "IFN-γ ELISPOT assays (ex vivo and 7-day) on patient PBMC", "assay_type": "cell-based, human", "details": "PBMC of patients vaccinated with AE37; label = stimulating peptide", "text": "Blood was drawn from patients prior to receiving each inoculation, at one month (post-vaccination), and at six months (long-term) after completing the series. Forty ml of peripheral blood was drawn into Vacutainer® CPT™ tubes (Becton Dickinson, Franklin Lakes, N.J.) and centrifuged for the isolation of PBMC populations. […]\nThe human IFN-γ ELISPOT Kit (BD-Pharmingen) was used for the ELISPOT assays. […] The plate was allowed to dry and the number of spots present in each well was counted and analyzed using a CTL-ImmunoSpot Analyzer (C.T.L. Cellular Technology Ltd, OH) (FIGS. 7-10). […]\nThe PBMC population prepared from the patient's peripheral blood (as described in the previous section) was resuspended at 2×10^6 cells/ml in CM and added as 1 ml aliquots to the 8 wells. […] At the end of the incubation period the plate was removed and the cells/cultures were harvested into separate tubes, spun down, resuspended in CM, and counted. […] The plate was allowed to dry and the number of spots present in each well was counted and analyzed using a CTL-ImmunoSpot Analyzer (C.T.L. Cellular Technology Ltd, OH) (FIGS. 11-14). […]"}, "[2]": {"test_system": "PBMC", "test": "3H-thymidine proliferation assay on patient PBMC", "assay_type": "cell-based, human", "details": "PBMC of patients vaccinated with AE37, label = stimulating peptide", "text": "Blood was drawn from patients prior to receiving each inoculation, at one month (post-vaccination), and at six months (long-term) after completing the series. Forty ml of peripheral blood was drawn into Vacutainer® CPT™ tubes (Becton Dickinson, Franklin Lakes, N.J.) and centrifuged for the isolation of PBMC populations. PBMC were washed in HBSS and re-suspended in culture medium (CM) consisting of RPMI-1640 containing 10% FCS (Gemini Bio-Products, Woodland, Calif.) supplemented with 1× penicillin/L-glutamine/streptomycin (Life Technologies, Gaithersburg, Md.) and used for setting up the immunomonitoring protocol/assays which consisted of ELISPOT (IFN-γ secretion) and proliferation (3H-thymidine incorporation) assays. All cultures were maintained in a humidified incubator at 37° C. in 5% CO2.\nThe PBMC population prepared from the patient's peripheral blood sample was also used for the monitoring of vaccine-specific proliferative activity of the T lymphocytes using a standard radioactive ^3H-thymidine incorporation assay. […] The filtermat was dried and placed in a sample bag with scintillation fluid (BetaScint, Perkin-Elmer) and counted using a scintillation counter (MicroBeta Trilux Scintillation Counter, Perkin-Elmer). The proliferative activity associated with the cultures was measured by the amount of thymidine incorporation which was determined as counts per minute (cpm). […]"}, "[3]": {"test": "Phase II trial: DTH reactions", "assay_type": "in vivo, human", "details": "label = challenge peptide", "text": "(§1) Immunologic response was monitored by measured delayed type hypersensitivity reactions (DTH) and ^3H-thymidine proliferative assays for both hybrid AE37 (LRMK+HER2/neu:776-790) and AE36 (unmodified HER2/neu:776-790) peptides."}, "[4]": {"test": "Phase II trial: 3H-thymidine proliferative assays", "assay_type": "cell-based, human", "details": "label = stimulating peptide", "text": "as §1"}, "[5]": {"test": "Phase Ib trial: local reaction and dose reductions", "assay_type": "in vivo, human", "description": "The study was performed as a two-stage safety trial to define the maximum tolerated dose of vaccine as well as the optimal dosing of the vaccine and GM-CSF. In the first stage (FIGS. 1-4), patient dose groups were given escalating amounts of the AE37 peptide. Three patients were assigned to each dosing group and were given the assigned dose of AE37 with a fixed initial dose of GM-CSF of 250 μg. This dose of GM-CSF was chosen based on our previous E75 trials. However, GM-CSF was reduced 50% for subsequent inoculations when local skin reaction exceeded 100 mm. All patients received monthly inoculations for six months. Dosing groups were as follows (AE37 (μg):#inoculations): 100:6, 500:6, 1000:6. Because each patient in the 500:6 group required significant and repeated reductions of GM-CSF, the 1000:6 group was initially inoculated without GM-CSF; GM-CSF was added back if local reaction from the two injection sites were non-confluent.\nThe hybrid peptide AE37 was mixed with GM-CSF (varying doses) and injected intradermally in the same extremity on a monthly basis. Each dosing group consisted of 3 patients. […] Stage I was designed to identify the maximum tolerated dose of vaccine. Stage II was designed to find the optimal biologic dose. Local toxicity dictated dose adjustments in each stage.\nA local reaction ≧100 mm in at least one direction necessitates a reduction of GM-CSF dose for the subsequent vaccination (or reduction in vaccine dose if patient received no GM-CSF). […] FIGS. 1-4 show the dose of GM-CSF and the local reaction in each patient throughout the vaccine series."}, "[6]": {"test": "Phase Ib trial: delayed type hypersensitivity (DTH) reaction", "assay_type": "in vivo, human", "details": "100 μg AE37 intradermal without GM-CSF", "description": "A direct in vivo measure of the vaccine's effectiveness is the DTH reaction. Patients were injected intradermally with 100 μg of AE37 (without GM-CSF) prior to the initiation of the vaccination series and one month after the completion of the vaccination regimen in the opposite limb to which they received the vaccine series. Patients were also injected intradermally with a parallel control (sterile saline, same volume) at a site on the back or extremity (opposite side from the vaccination site). The DTH reaction was measured in two dimensions at 48-72 hours using the sensitive ballpoint pen method and compared with control. Pre- and post-vaccination DTH reactions were also compared."}, "[7]": {"test": "Phase II trial: recurrence of breast cancer", "assay_type": "in vivo, human", "details": "for Recurrences (patients/total) / Recurrences: median follow up of 13 months; for Recurrences: PG vs AG p=0.08", "experimental": "(§2) Toxicity is assessed after each inoculation using National Cancer Institute Common Terminology Criteria for Adverse Events v3.0 (CTCAE). […] Patients are clinically, radiographically, and pathologically monitored for recurrence of BCa."}, "[8]": {"details": "in vivo", "text": "The dose escalation safety trial design is for five groups of three patients to receive escalating doses of AE37 with or without GM-CSF in six monthly inoculations. An additional six patients will be vaccinated at the optimal biologic dosing (OBD) in order to complete the 21 patient phase I trial. Enrolled patients were HLA typed, and HLA-A2^− patients and those HLA-A2^+ patients not interested in an alternative vaccine trial were vaccinated.\nThe National Institutes of Health Common Toxicity Criteria (CTC) (Version 2, Mar. 23, 1998) definitions of adverse events were applied. Both local toxicity at the injection sites as well as systemic toxicity were evaluated in all patients for all inoculations. By design, progression to the second stage occurred only if no significant toxicity occurred in the first stage.\nToxicities were graded per the National Institutes of Health Common Toxicity Criteria and reported on a scale zero to five (Table 3). Local toxicity dictated dose reductions as described above."}, "[9]": {"details": "in vivo", "remark": "listed apart in the source", "experimental": "as §2"}, "[10]": {"test": "Phase II trial AE37+GM-CSF versus GM-CSF alone: toxicity (CTCAE v3.0)", "details": "six monthly inoculations, AG = GM-CSF alone", "experimental": "as §2"}, "[11]": {"details": "Her-2/neu+ breast cancer patients; cited from earlier work"}, "[12]": {"test_system": "hen egg white lysozyme (HEL)-specific T cell hybridoma", "details": "cited from earlier work"}, "[13]": {"details": "AG group (GM-CSF alone), p>0.05 vs baseline"}, "[14]": {"details": "PG group (AE37 + GM-CSF), p<0.0001 vs baseline"}, "[15]": {"details": "PG (AE37 + GM-CSF), at 3, 6, and 12 months after the start of the vaccine series, p<0.015"}},
  "data": [
    {"substance": "Ac-GVGSPYVSRLLGICL-NH2 [AE36, native HER-2/neu peptide aa776-790, reference compound]", "values": [
      {"measurement": "CD4+ T cell response (IFN-γ ELISPOT) to stimulating peptide after vaccination", "setting": "[1]", "value": "increased CD4+ T cell response"},
      {"measurement": "Peptide-specific proliferation of T cells after vaccination", "setting": "[2]", "value": "increased capacity to divide and expand a specific clone"},
      {"measurement": "Peptide-specific proliferation of T cells after vaccination", "setting": "[2]; listed as native Her-2/neu peptide", "value": "increased CD4+ T cell response"},
      {"measurement": "Median DTH reaction at baseline", "setting": "[3]; AG group (GM-CSF alone)", "value": "0.0±0.5", "unit": "cm"},
      {"measurement": "Median DTH reaction at 1 month after completion of the primary series", "setting": "[3]; [13]", "value": 0, "unit": "mm"},
      {"measurement": "Median DTH reaction at baseline", "setting": "[3]; PG group (AE37 + GM-CSF)", "value": "0.0±0.8", "unit": "cm"},
      {"measurement": "Median DTH reaction at 1 month after completion of the primary series", "setting": "[3]; [14]", "value": "15.3 ± 2.1", "unit": "mm"},
      {"measurement": "Median proliferation response versus baseline", "setting": "[4]; AG (GM-CSF alone)", "value": "did not significantly change"},
      {"measurement": "Median proliferation response versus baseline", "setting": "[4]; [15]", "value": "significantly increased from baseline"}
    ]},
    {"substance": "Ac-LRMKGVGSPYVSRLLGICL-NH2 [AE37]", "values": [
      {"measurement": "Dose reductions required because of local reaction ≧100 mm", "setting": "[5]; first group 100:6 (100 μg AE37 + 250 μg GM-CSF)", "value": "required no reductions in dose"},
      {"measurement": "Dose reductions required because of local reaction ≧100 mm", "setting": "[5]; second group 500:6 (500 μg AE37 + 250 μg GM-CSF initially)", "value": "required a GM-CSF dose reduction by the third vaccine"},
      {"measurement": "Dose reductions required because of local reaction ≧100 mm", "setting": "[5]; third group 1000:6 (1000 μg AE37 initiated without GM-CSF)", "value": "two of the three patients in this group required reduction of vaccine dose on multiple occasions"},
      {"measurement": "DTH diameter of local reaction pre vaccine, range", "setting": "[6]; before vaccination series", "value": "0-17 mm"},
      {"measurement": "DTH diameter of local reaction post-vaccine, range", "setting": "[6]; one month after completion of series", "value": "12-106 mm"},
      {"measurement": "DTH mean diameter of local reaction post-vaccine", "setting": "[6]; one month after completion of series, p<0.0001 vs pre", "value": 62, "unit": "mm"},
      {"measurement": "DTH mean diameter of local reaction pre vaccine", "setting": "[6]; read at 48-72 hours, before vaccination series", "value": 4.9, "unit": "mm"},
      {"measurement": "Median DTH reaction at baseline", "setting": "[3]; AG group (GM-CSF alone)", "value": "0.0±0.7", "unit": "cm"},
      {"measurement": "Median DTH reaction at 1 month after completion of the primary series", "setting": "[3]; [13]", "value": 0, "unit": "mm"},
      {"measurement": "Median DTH reaction at baseline", "setting": "[3]; PG group (AE37 + GM-CSF)", "value": "0.0±0.7", "unit": "cm"},
      {"measurement": "Median DTH reaction at 1 month after completion of the primary series", "setting": "[3]; [14]", "value": "24.5 ± 2.6", "unit": "mm"},
      {"measurement": "Median proliferation response versus baseline", "setting": "[4]; AG (GM-CSF alone)", "value": "did not significantly change"},
      {"measurement": "Median proliferation response versus baseline", "setting": "[4]; [15]", "value": "significantly increased from baseline"},
      {"measurement": "Recurrences (patients/total)", "setting": "[7]", "value": "0/49"},
      {"measurement": "Recurrences", "setting": "[7]", "value": 0.0, "unit": "%"},
      {"measurement": "Protection against BCa recurrences", "setting": "[7]; phase II", "value": "protects against BCa recurrences"},
      {"measurement": "Grade 3 or greater local toxicities", "setting": "[8]", "value": "no grade 3 or greater local toxicities"},
      {"measurement": "Local toxicity grade, all patients", "setting": "[8]", "value": "grade 1 or 2 local toxicity"},
      {"measurement": "Maximum Toxicity, Local Toxicity Grade 1, number of patients (%)", "setting": "[8]", "value": "3 (25)%"},
      {"measurement": "Maximum Toxicity, Local Toxicity Grade 2, number of patients (%)", "setting": "[8]", "value": "9 (75%)"},
      {"measurement": "Maximum Toxicity, Local Toxicity Grade 3, number of patients (%)", "setting": "[8]", "value": "0 (0%)"},
      {"measurement": "Maximum Toxicity, Systemic Toxicity Grade 1, number of patients (%)", "setting": "[8]", "value": "10 (83%)"},
      {"measurement": "Maximum Toxicity, Systemic Toxicity Grade 2, number of patients (%)", "setting": "[8]", "value": "0 (0%)"},
      {"measurement": "Maximum Toxicity, Systemic Toxicity Grade 3, number of patients (%)", "setting": "[8]", "value": "0 (0%)"},
      {"measurement": "Overall safety and tolerability", "setting": "[8]", "value": "safe and well-tolerated with minimal systemic toxicity observed"},
      {"measurement": "Systemic toxicities reported", "setting": "[8]", "value": "Only grade 1 systemic toxicities"},
      {"measurement": "Overall safety", "setting": "[9]", "value": "safe"}
    ]},
    {"substance": "GM-CSF", "values": [
      {"measurement": "Recurrences (patients/total)", "setting": "[7]", "value": "5/71"},
      {"measurement": "Recurrences", "setting": "[7]", "value": 7.0, "unit": "%"},
      {"measurement": "Local toxicities", "setting": "[10]; PG = 500 mcg AE37 + 62.5 or 125 mcg GM-CSF", "value": "no grade 4-5 local toxicities"},
      {"measurement": "Systemic toxicities", "setting": "[10]; PG = AE37 + GM-CSF", "value": "no grade 3-5 systemic toxicities"}
    ]},
    {"substance": "GP2: immunogenic peptide of Her-2/neu used in clinical trials as vaccine (IISAVVGIL; UniProt P04626 654-662, looked up, fragment)", "values": [
      {"measurement": "Safety in patients", "setting": "[11]", "value": "safe in patients"},
      {"measurement": "Stimulation of antigen specific immunity", "setting": "[11]", "value": "effective in stimulating antigen specific immunity"}
    ]},
    {"substance": "LRMK [four-amino-acid Ii-Key moiety, Ii 77-80]", "values": [
      {"measurement": "Activity retained relative to LRMKLPK", "setting": "[12]", "value": "at least 50%"}
    ]},
    {"substance": "LRMKLPK", "values": [
      {"measurement": "Potency relative to the original 16-amino acid peptide", "setting": "[12]", "value": "greater potency than the original 16-amino acid peptide"}
    ]}
  ]
}
